{"source": "ChEMBL document CHEMBL5223144", "about": "“Second generation Spautin-1 analogues targeting EGFR-mutant non-small cell lung cancer cells” (Bioorg Med Chem Lett, 2023)", "key": {"PC-9 [1]": {"system": "PC-9", "test": "Cytotoxicity against human PC-9 cells harboring EGFR mutant assessed as inhibition of cell growth", "type": "functional, cell-based"}, "PC-9 [2]": {"system": "PC-9", "test": "Additive cytotoxicity against human PC-9 cells assessed as reduction in cell viability at 34 nM incubated in presence of afatinib", "type": "functional, cell-based"}, "BEAS-2B [3]": {"system": "BEAS-2B", "test": "Cytotoxicity against human BEAS-2B cells assessed as reduction in cell viability at 34 nM", "type": "toxicity, cell-based", "settings": "0.034 µM"}, "BEAS-2B [4]": {"system": "BEAS-2B", "test": "Cytotoxicity against human BEAS-2B cells assessed as reduction in cell viability at 34 nM incubated in presence of afatinib", "type": "toxicity, cell-based", "settings": "0.034 µM"}, "[5]": {"molecular_target": "Epidermal growth factor receptor (Homo sapiens) (UniProt P00533)", "sequence (P00533 whole entry)": "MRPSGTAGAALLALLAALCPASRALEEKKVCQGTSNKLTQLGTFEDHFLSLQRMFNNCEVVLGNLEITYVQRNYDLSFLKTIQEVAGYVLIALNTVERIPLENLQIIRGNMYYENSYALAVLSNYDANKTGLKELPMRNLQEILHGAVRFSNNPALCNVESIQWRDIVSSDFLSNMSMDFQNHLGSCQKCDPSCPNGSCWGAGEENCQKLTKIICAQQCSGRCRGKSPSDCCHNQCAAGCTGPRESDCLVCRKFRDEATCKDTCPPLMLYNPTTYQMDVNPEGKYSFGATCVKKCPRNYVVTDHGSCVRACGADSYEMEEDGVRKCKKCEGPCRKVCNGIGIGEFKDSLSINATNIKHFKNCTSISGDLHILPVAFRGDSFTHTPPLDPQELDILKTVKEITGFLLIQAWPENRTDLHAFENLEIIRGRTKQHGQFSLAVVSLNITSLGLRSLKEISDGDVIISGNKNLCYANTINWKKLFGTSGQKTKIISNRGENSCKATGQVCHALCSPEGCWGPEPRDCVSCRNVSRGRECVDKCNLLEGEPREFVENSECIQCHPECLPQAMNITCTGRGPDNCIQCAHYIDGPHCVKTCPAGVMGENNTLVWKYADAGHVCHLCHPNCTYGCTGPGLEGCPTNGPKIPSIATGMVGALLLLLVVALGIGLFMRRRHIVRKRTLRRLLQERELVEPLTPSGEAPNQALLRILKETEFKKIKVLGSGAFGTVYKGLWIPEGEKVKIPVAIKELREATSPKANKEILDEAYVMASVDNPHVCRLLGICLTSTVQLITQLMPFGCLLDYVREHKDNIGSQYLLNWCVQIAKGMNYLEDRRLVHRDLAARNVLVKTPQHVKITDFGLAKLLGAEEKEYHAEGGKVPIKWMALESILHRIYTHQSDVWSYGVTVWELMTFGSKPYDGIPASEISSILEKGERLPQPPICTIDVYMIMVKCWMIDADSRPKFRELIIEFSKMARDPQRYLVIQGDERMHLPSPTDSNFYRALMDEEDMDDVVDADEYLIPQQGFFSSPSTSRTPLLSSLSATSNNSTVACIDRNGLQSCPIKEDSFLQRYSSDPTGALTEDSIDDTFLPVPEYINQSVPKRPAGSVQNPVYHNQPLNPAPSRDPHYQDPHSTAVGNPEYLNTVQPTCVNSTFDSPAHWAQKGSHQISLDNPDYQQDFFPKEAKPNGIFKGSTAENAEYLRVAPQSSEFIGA", "test": "Inhibition of EGFR (unknown origin) assessed as residual activity relative to control"}, "[6]": {"molecular_target": "Tyrosine-protein kinase Fer (Homo sapiens) (UniProt P16591)", "sequence (P16591 whole entry, looked up)": "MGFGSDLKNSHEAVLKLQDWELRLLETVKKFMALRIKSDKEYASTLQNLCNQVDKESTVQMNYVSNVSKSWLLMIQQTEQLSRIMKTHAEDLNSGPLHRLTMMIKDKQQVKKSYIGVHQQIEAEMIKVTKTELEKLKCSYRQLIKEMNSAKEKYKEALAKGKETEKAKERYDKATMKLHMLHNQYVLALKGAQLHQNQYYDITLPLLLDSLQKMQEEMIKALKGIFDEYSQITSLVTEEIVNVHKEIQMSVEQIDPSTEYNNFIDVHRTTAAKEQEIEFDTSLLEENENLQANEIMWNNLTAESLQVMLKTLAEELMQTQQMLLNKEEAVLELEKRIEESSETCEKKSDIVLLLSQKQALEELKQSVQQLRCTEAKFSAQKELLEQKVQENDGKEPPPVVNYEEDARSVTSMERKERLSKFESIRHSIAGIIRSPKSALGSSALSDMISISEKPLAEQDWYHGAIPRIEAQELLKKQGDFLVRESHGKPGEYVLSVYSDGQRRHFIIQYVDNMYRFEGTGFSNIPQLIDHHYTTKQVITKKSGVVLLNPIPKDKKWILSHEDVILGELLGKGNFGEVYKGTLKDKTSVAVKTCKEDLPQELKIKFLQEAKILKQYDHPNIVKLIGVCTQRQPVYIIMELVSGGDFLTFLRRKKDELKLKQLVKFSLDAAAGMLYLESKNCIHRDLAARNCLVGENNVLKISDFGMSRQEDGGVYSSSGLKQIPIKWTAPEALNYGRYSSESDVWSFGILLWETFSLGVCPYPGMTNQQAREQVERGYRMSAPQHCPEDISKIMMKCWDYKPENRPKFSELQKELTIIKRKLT", "test": "Inhibition of FER (unknown origin) at 50 nM"}, "[7]": {"molecular_target": "ALK tyrosine kinase receptor (Homo sapiens) (UniProt Q9UM73)", "sequence (Q9UM73 19-1620 limits assumed)": "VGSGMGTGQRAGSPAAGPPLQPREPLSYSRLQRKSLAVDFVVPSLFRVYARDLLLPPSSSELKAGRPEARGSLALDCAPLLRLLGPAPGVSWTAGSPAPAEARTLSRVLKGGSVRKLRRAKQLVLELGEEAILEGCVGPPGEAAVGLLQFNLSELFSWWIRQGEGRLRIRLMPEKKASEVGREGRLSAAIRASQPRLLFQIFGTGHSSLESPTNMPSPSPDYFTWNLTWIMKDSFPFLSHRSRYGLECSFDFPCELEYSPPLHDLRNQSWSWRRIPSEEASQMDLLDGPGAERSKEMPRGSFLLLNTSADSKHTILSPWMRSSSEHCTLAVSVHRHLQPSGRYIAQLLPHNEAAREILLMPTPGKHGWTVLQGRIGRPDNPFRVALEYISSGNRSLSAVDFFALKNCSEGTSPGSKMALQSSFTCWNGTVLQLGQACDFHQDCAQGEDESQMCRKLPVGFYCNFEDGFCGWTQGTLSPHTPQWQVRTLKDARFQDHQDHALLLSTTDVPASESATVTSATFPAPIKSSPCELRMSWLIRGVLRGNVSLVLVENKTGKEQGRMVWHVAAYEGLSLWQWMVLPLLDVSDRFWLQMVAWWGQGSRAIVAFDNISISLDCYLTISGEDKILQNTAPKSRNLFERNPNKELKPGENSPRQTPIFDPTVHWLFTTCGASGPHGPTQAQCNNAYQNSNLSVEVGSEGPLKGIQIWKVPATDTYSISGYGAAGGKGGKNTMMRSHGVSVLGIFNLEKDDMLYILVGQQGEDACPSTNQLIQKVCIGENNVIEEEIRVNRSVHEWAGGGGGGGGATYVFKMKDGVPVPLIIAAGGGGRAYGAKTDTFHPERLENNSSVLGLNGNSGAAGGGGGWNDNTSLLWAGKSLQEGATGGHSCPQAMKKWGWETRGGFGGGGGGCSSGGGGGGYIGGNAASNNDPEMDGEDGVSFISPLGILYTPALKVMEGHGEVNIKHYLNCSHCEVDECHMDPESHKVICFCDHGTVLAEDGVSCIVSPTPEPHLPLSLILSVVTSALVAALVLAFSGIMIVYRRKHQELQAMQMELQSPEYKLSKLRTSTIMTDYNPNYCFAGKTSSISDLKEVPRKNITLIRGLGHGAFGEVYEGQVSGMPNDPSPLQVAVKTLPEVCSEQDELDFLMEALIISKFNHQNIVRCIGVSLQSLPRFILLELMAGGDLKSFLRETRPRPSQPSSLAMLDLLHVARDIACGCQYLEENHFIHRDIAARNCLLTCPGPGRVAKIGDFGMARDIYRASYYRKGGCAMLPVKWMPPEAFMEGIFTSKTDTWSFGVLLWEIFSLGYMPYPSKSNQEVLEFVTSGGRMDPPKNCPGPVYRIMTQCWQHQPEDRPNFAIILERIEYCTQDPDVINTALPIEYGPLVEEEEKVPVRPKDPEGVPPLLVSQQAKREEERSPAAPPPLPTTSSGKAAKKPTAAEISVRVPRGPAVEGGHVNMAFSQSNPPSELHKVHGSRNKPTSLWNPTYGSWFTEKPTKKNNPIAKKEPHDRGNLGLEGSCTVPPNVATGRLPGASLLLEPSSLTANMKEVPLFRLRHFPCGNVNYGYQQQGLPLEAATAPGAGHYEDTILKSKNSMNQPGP", "test": "Inhibition of ALK (unknown origin) at 50 nM"}, "[8]": {"molecular_target": "Serine/threonine-protein kinase pim-1 (Homo sapiens) (UniProt P11309)", "test": "Inhibition of Moloney murine leukemia virus Proviral integration site 1 at 50 nM"}, "PC-9 [9]": {"system": "PC-9", "test": "Additive cytotoxicity against human PC-9 cells assessed as reduction in cell viability at 4 nM incubated in presence of afatinib", "type": "functional, cell-based"}, "BEAS-2B [10]": {"system": "BEAS-2B", "test": "Cytotoxicity against human BEAS-2B cells assessed as reduction in cell viability at 4 nM", "type": "toxicity, cell-based", "settings": "0.004 µM"}, "BEAS-2B [11]": {"system": "BEAS-2B", "test": "Cytotoxicity against human BEAS-2B cells assessed as reduction in cell viability at 4 nM incubated in presence of afatinib", "type": "toxicity, cell-based", "settings": "0.004 µM"}, "[12]": {"molecular_target": "Tyrosine-protein kinase Fer (Homo sapiens) (UniProt P16591)", "test": "Inhibition of FER (unknown origin) at 10 nM"}, "[13]": {"molecular_target": "ALK tyrosine kinase receptor (Homo sapiens) (UniProt Q9UM73)", "test": "Inhibition of ALK (unknown origin) at 10 nM"}, "[14]": {"molecular_target": "Serine/threonine-protein kinase pim-1 (Homo sapiens) (UniProt P11309)", "test": "Inhibition of Moloney murine leukemia virus Proviral integration site 1 at 10 nM"}, "PC-9 [15]": {"system": "PC-9", "test": "Cytotoxicity against human PC-9 cells harboring EGFR mutant assessed as inhibition of cell growth incubated for 72 hrs by ATP-based luminescence CellTiter-Glo assay", "type": "functional", "settings": "PC-9, 72 h"}}, "note": "Active and inactive are the calls of the source. The calls are words filed in the database; no cut-off is given here."}
{"molecule": "COc1ccccc1-c1ccc(CCNc2ncnc3ccc(F)cc23)cc1", "values": [{"measurement": "IC50", "setting": "PC-9 [1]", "value": 105, "unit": "nM"}]}
{"molecule": "Fc1ccc2ncnc(NCCc3ccc(I)cc3)c2c1", "values": [{"measurement": "IC50", "setting": "PC-9 [1]", "value": 261, "unit": "nM"}]}
{"molecule": "Fc1ccc2ncnc(NC3CCc4cc(Br)ccc4C3)c2c1", "note": "(centres undefined)", "values": [{"measurement": "IC50", "setting": "PC-9 [1]", "value": 718, "unit": "nM"}]}
{"molecule": "CC(C)(C)Oc1ccc(-c2ccc(CCNc3ncnc4ccc(F)cc34)cc2)cc1", "values": [{"measurement": "IC50", "setting": "PC-9 [1]", "value": 1700, "unit": "nM"}]}
{"molecule": "Fc1ccc2ncnc(NCCc3ccc(-c4cccc(F)c4F)cc3)c2c1", "values": [{"measurement": "IC50", "setting": "PC-9 [1]", "value": 76, "unit": "nM"}]}
{"molecule": "Fc1ccc2ncnc(NCCc3ccc(-c4ccncc4)cc3)c2c1", "values": [{"measurement": "IC50", "setting": "PC-9 [1]", "value": 408, "unit": "nM"}]}
{"molecule": "Fc1ccc2ncnc(NCCc3ccc(-c4ccc(C(F)(F)F)cc4)cc3)c2c1", "values": [{"measurement": "IC50", "setting": "PC-9 [1]", "value": 131, "unit": "nM"}]}
{"molecule": "Fc1ccc2ncnc(NCCc3ccc(-c4cccnc4)cc3)c2c1", "values": [{"measurement": "IC50", "setting": "PC-9 [1]", "value": 1040, "unit": "nM"}]}
{"molecule": "Fc1ccc2ncnc(NCCc3ccc(-c4ccco4)cc3)c2c1", "values": [{"measurement": "IC50", "setting": "PC-9 [1]", "value": 636, "unit": "nM"}]}
{"molecule": "Fc1ccc2ncnc(NCCc3ccc(-c4ccc5oc6ccccc6c5c4)cc3)c2c1", "values": [{"measurement": "IC50", "setting": "PC-9 [1]", "value": 79, "unit": "nM"}]}
{"molecule": "Fc1ccc2ncnc(NCCc3ccc(-c4ccccc4F)cc3)c2c1", "values": [{"measurement": "IC50", "setting": "PC-9 [1]", "value": 66, "unit": "nM"}]}
{"molecule": "Fc1ccc(-c2ccc(CCNc3ncnc4ccc(F)cc34)cc2)c(F)c1", "values": [{"measurement": "IC50", "setting": "PC-9 [1]", "value": 34, "unit": "nM"}, {"measurement": "Activity", "setting": "PC-9 [2]", "value": "Active"}, {"measurement": "Activity", "setting": "BEAS-2B [3]", "value": "Non-Toxic"}, {"measurement": "Activity", "setting": "BEAS-2B [4]", "value": "Non-Toxic"}, {"measurement": "Activity", "setting": "[5]", "value": "> 90", "unit": "%"}, {"measurement": "inhibition", "setting": "[6]", "value": "Active"}, {"measurement": "inhibition", "setting": "[7]", "value": "Active"}, {"measurement": "inhibition", "setting": "[8]", "value": "Active"}]}
{"molecule": "Fc1ccc2ncnc(NCCc3ccc(-c4ccoc4)cc3)c2c1", "values": [{"measurement": "IC50", "setting": "PC-9 [1]", "value": 288, "unit": "nM"}]}
{"molecule": "COc1ccc(Oc2ccc(CCNc3ncnc4ccc(F)cc34)cc2)cc1", "values": [{"measurement": "IC50", "setting": "PC-9 [1]", "value": 7, "unit": "nM"}]}
{"molecule": "Fc1ccc(-c2ccc(CCNc3ncnc4ccc(F)cc34)cc2)cc1", "values": [{"measurement": "IC50", "setting": "PC-9 [1]", "value": 160, "unit": "nM"}]}
{"molecule": "Fc1ccc2ncnc(NCCc3cccc(Br)c3)c2c1", "values": [{"measurement": "IC50", "setting": "PC-9 [1]", "value": 685, "unit": "nM"}]}
{"molecule": "Fc1ccc2ncnc(NCCc3ccc(OCc4ccccc4)cc3)c2c1", "values": [{"measurement": "IC50", "setting": "PC-9 [1]", "value": 30, "unit": "nM"}]}
{"molecule": "Fc1cccc(-c2ccc(CCNc3ncnc4ccc(F)cc34)cc2)c1", "values": [{"measurement": "IC50", "setting": "PC-9 [1]", "value": 618, "unit": "nM"}]}
{"molecule": "Fc1ccc(Oc2ccc(CCNc3ncnc4ccc(F)cc34)cc2)cc1", "values": [{"measurement": "IC50", "setting": "PC-9 [1]", "value": 4, "unit": "nM"}, {"measurement": "Activity", "setting": "PC-9 [9]", "value": "Active"}, {"measurement": "Activity", "setting": "BEAS-2B [10]", "value": "Non-Toxic"}, {"measurement": "Activity", "setting": "BEAS-2B [11]", "value": "Non-Toxic"}, {"measurement": "Activity", "setting": "[5]", "value": "> 90", "unit": "%"}, {"measurement": "inhibition", "setting": "[12]", "value": "Active"}, {"measurement": "inhibition", "setting": "[13]", "value": "Active"}, {"measurement": "inhibition", "setting": "[14]", "value": "Active"}]}
{"molecule": "Fc1ccc2ncnc(NCCc3ccc(-c4cccc5ccccc45)cc3)c2c1", "values": [{"measurement": "IC50", "setting": "PC-9 [1]", "value": 291, "unit": "nM"}]}
{"molecule": "Fc1ccc2ncnc(NCCc3ccc(-c4ccc(Oc5ccccc5)cc4)cc3)c2c1", "values": [{"measurement": "IC50", "setting": "PC-9 [1]", "value": 280, "unit": "nM"}]}
{"molecule": "Fc1ccc2ncnc(NCCc3ccc(-c4ccccc4)cc3)c2c1", "values": [{"measurement": "IC50", "setting": "PC-9 [1]", "value": 77, "unit": "nM"}]}
{"molecule": "Fc1ccc(CNc2ncnc3ccc(F)cc23)cc1", "values": [{"measurement": "IC50", "setting": "PC-9 [15]", "value": "> 5000", "unit": "nM"}]}
{"molecule": "Fc1ccc2ncnc(NCCc3ccc(-c4ccc(F)c(F)c4)cc3)c2c1", "values": [{"measurement": "IC50", "setting": "PC-9 [1]", "value": 138, "unit": "nM"}]}
{"molecule": "Fc1ccc2ncnc(NCCc3ccc(-c4ccc5c(c4)OCCO5)cc3)c2c1", "values": [{"measurement": "IC50", "setting": "PC-9 [1]", "value": 69, "unit": "nM"}]}
{"molecule": "Cc1ccc(-c2ccc(CCNc3ncnc4ccc(F)cc34)cc2)cc1", "values": [{"measurement": "IC50", "setting": "PC-9 [1]", "value": 49, "unit": "nM"}]}
{"molecule": "Fc1ccc2ncnc(NCCc3cccc(-c4ccccc4)c3)c2c1", "values": [{"measurement": "IC50", "setting": "PC-9 [1]", "value": 668, "unit": "nM"}]}
{"molecule": "Fc1ccc2ncnc(NCCc3ccc(Br)cc3)c2c1", "values": [{"measurement": "IC50", "setting": "PC-9 [15]", "value": 207, "unit": "nM"}]}
{"molecule": "Fc1ccc2ncnc(NCCc3ccccc3Br)c2c1", "values": [{"measurement": "IC50", "setting": "PC-9 [1]", "value": 892, "unit": "nM"}]}
{"molecule": "Fc1ccc2ncnc(NCCc3ccc(-c4ccc(Cl)cc4)cc3)c2c1", "values": [{"measurement": "IC50", "setting": "PC-9 [1]", "value": 44, "unit": "nM"}]}
{"molecule": "Fc1ccc2ncnc(NCCc3ccc(-c4ccc5ccccc5c4)cc3)c2c1", "values": [{"measurement": "IC50", "setting": "PC-9 [1]", "value": 101, "unit": "nM"}]}
{"molecule": "Fc1ccc2ncnc(NCCc3ccccc3-c3ccccc3)c2c1", "values": [{"measurement": "IC50", "setting": "PC-9 [1]", "value": "> 5000", "unit": "nM"}]}
{"molecule": "CN(C)C/C=C/C(=O)Nc1cc2c(Nc3ccc(F)c(Cl)c3)ncnc2cc1O[C@H]1CCOC1", "note": "[AFATINIB]", "values": [{"measurement": "IC50", "setting": "PC-9 [1]", "value": 5, "unit": "nM"}]}
{"molecule": "CC(C)(C)c1ccc(CCNc2ncnc3ccc(F)cc23)cc1", "values": [{"measurement": "IC50", "setting": "PC-9 [1]", "value": 45, "unit": "nM"}]}
{"molecule": "CC(C)(C)c1ccc(-c2ccc(CCNc3ncnc4ccc(F)cc34)cc2)cc1", "values": [{"measurement": "IC50", "setting": "PC-9 [1]", "value": 363, "unit": "nM"}]}
{"molecule": "COc1ccc(-c2ccc(CCNc3ncnc4ccc(F)cc34)cc2)cc1", "values": [{"measurement": "IC50", "setting": "PC-9 [1]", "value": 69, "unit": "nM"}]}
{"molecule": "Fc1ccc2ncnc(NCCc3ccc(Oc4ccccc4)cc3)c2c1", "values": [{"measurement": "IC50", "setting": "PC-9 [1]", "value": 14, "unit": "nM"}]}
{"molecule": "Fc1ccc2ncnc(NCCc3ccc4ccccc4c3)c2c1", "values": [{"measurement": "IC50", "setting": "PC-9 [1]", "value": 64, "unit": "nM"}]}
{"molecule": "COc1cccc(-c2ccc(CCNc3ncnc4ccc(F)cc34)cc2)c1", "values": [{"measurement": "IC50", "setting": "PC-9 [1]", "value": 67, "unit": "nM"}]}
{"molecule": "Fc1ccc2ncnc(Nc3ccc4cc(Br)ccc4c3)c2c1", "values": [{"measurement": "IC50", "setting": "PC-9 [1]", "value": "> 5000", "unit": "nM"}]}
